The values that follow come from patent publication US20240376097A1, “BCL-2 Inhibitor” (BeiGene Ltd., priority 2020, published 2024).

Where two headings read alike, the source gives them in different places.

In test [1] the test system is BCL-2 G101V knock-in cell line H96 (derive from RS4;11). Kind of test: Bcl 2-G101V Knock-In RS4;11 Cell Proliferation Assay. Format: cell-based. As to conditions: Homo sapiens, RS4;11 Bcl-2 G101V knock-in clone H96, 48 hrs, CellTiter-GLO, read-out: Cellular proliferation assay (IC50, nM) RS4. Summed up:
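CellTiter-Glo luminescence after 48 h, 37 °C compound treatment (10 concentrations, maximum 1 μM or 10 μM) gave mean IC50 values. Cells were 50,000 per well of H96, a BCL2-G101V knock-in single clone derived from RS4;11 by Cas9 editing.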
(In ATP-based viability assays light output follows the ATP content of the culture.)

The test system of test [2] is RS4;11 (BCL-2 dependent acute lymphoblastic leukemia cell line). The test is described as follows: RS4;11 Cell Proliferation Assay. As to conditions: Homo sapiens, RS4-11, RS4;11 cells, read-out: Cellular proliferation assay (IC50, nM) RS4. In kind it is cell-based. The essentials:
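Viability measured via CellTiter-Glo luminescence after a 48 h, 37 °C exposure to compounds (10 points, highest 1 μM). Seeding was 50,000 RS4;11 cells per well in 10% FBS RPMI-1640; IC50 given as mean.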

The target of test [3] is recombinant human Bcl-2 D103Y protein (Homo sapiens (Human), UniProt P10415, D103Y). Kind of test: Bcl-2-D103Y Biochemical Assay (TR-FRET). Format: binding. As to conditions: for IC50: TR-FRET, FITC labeled Bak peptide; for Ratio of Bcl-2 D103Y/Bcl-2 WT: ratio of IC50. The essentials:
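Compounds titrated against the Bcl-2 D103Y–ligand interaction; inhibition derived from the TR-FRET emission ratio 490 nm/520 nm after 337 nm excitation. Four-parameter logistic fitting gave IC50.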
A general note: Time-resolved FRET reads energy transfer from a long-lived donor to a nearby acceptor.

The test system of test [4] is recombinant human Bcl-2-G101V protein. Kind of test: Bcl-2-G101V TR-FRET Assay. Format: binding. As to conditions: for Ratio of Bcl-2 G101V/WT: ratio of biochemical IC50 Bcl-2 G101V / Bcl-2 WT. The essentials: (§1)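 TR-FRET read at excitation 337 nm with emission at 490 nm and 520 nm. Inhibition of Bcl-2-G101V binding to its ligand across increasing compound concentrations was calculated from the 490/520 nm fluorescence ratio, and IC50 values came from four-parameter logistic fits.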

For test [5], the target named is recombinant human Bcl-2-G101V protein (Homo sapiens (Human), UniProt P10415, G101V). The test is described as follows: Bcl-2-G101V TR-FRET Assay. In kind it is binding. As to conditions: Bcl-2 G101V mutant, TR-FRET; read-out: Biochemical assay (IC50, nM) Bcl-2 G101V. The essentials:
as §1

The target in test [6] is Recombinant human Bcl-2 protein (Homo sapiens (Human), UniProt P10415). Kind of test: Bcl-2 TR-FRET Assay. Format: binding. Summed up:
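In pH 7.5 phosphate buffer containing NaCl, EDTA, Tween-20 and BSA, 0.05 nM Bcl-2 saw serially diluted compound for 0.5 h before 0.5 nM FITC-Bak peptide was added. Signal ratio at 520/490 nm after 1 h yielded IC50.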

Setting [7] is: Bcl-2 wild type, TR-FRET, read-out: Biochemical assay (IC50, nM) Bcl-2 WT.
Setting [8] is: wild type Bcl-2, unit inferred, read-out: Bcl-2 WT.

As to `CC(C)c1ccccc1C1CN(Cc2cccc3c2OCCO3)CCN1C1CC2(CCN(c3ccc(C(=O)NS(=O)(=O)c4ccc(NC[C@H]5CC[C@](C)(O)CC5)c([N+](=O)[O-])c4)c(Oc4cnc5[nH]ccc5c4)c3)CC2)C1` (stereo partly shown) [Example 79, 2-((1H-pyrrolo[2,3-b]pyridin-5-yl)oxy)-4-(2-(4-((2,3-dihydrobenzo [b][1,4]dioxin-5-yl)methyl)-2-(2-isopropylphenyl)piperazin-1-yl)-7-azaspiro[3.5]nonan-7-yl)-N-((4-((((1r,4r)-4-hydroxy-4-methylcyclohexyl)methyl)amino)-3-nitrophenyl)sulfonyl)benzamide], the IC50 in test [1] is 1 nM; in test [2], 0.35 nM; in test [3], 0.19 nM; in test [5], 0.51 nM; in test [6] (setting [7]), 0.16 nM; in test [6] (setting [8]), 0.16 nM. Further, the “Ratio of Bcl-2 D103Y/Bcl-2 WT” value in test [3] is 1.2. Besides, the “Ratio of Bcl-2 G101V/WT” value in test [4] worked out at 3.2.
With `COc1ccc(CN2CCN(C3CC4(CCN(c5ccc(C(=O)NS(=O)(=O)c6ccc(NC[C@H]7CC[C@](C)(O)CC7)c([N+](=O)[O-])c6)c(Oc6cnc7[nH]ccc7c6)c5)CC4)C3)C(c3ccccc3C(C)C)C2)cc1OC` (stereo partly shown) [Example 81, 2-((1H-pyrrolo[2,3-b]pyridin-5-yl)oxy)-4-(2-(4-(3,4-dimethoxybenzyl)-2-(2-isopropylphenyl)piperazin-1-yl)-7-azaspiro[3.5]nonan-7-yl)-N-((4-((((1r,4r)-4-hydroxy-4-methylcyclohexyl)methyl)amino)-3-nitrophenyl)sulfonyl)benzamide], the IC50 was 0.878 nM in test [1]; 0.286 nM in test [2]; 0.084 nM in test [3]; 0.2 nM in test [5]; 0.038 nM in test [6] (setting [7]); 0.038 nM in test [6] (setting [8]). The “Ratio of Bcl-2 D103Y/Bcl-2 WT” value in test [3] is on record as 2.2. Moreover, the “Ratio of Bcl-2 G101V/WT” value in test [4] is given as 5.2.
`CC(C)c1ccccc1C1CN(Cc2ccc(S(C)(=O)=O)cc2)CCN1C1CC2(CCN(c3ccc(C(=O)NS(=O)(=O)c4ccc(NC[C@H]5CC[C@](C)(O)CC5)c([N+](=O)[O-])c4)c(Oc4cnc5[nH]ccc5c4)c3)CC2)C1` (stereo partly shown) [Example 82, 2-((1H-pyrrolo[2,3-b]pyridin-5-yl)oxy)-N-((4-((((1r,4r)-4-hydroxy-4-methylcyclohexyl)methyl)amino)-3-nitrophenyl)sulfonyl)-4-(2-(2-(2-isopropylphenyl)-4-(4-(methylsulfonyl)benzyl)piperazin-1-yl)-7-azaspiro[3.5]nonan-7-yl) benzamide]: the IC50 in test [1] was 2.67 nM; in test [2], 0.42 nM; in test [3] it was 0.17 nM; in test [5], 0.29 nM; in test [6] (setting [7]), 0.031 nM; in test [6] (setting [8]), 0.031 nM. Moreover, in test [3], the “Ratio of Bcl-2 D103Y/Bcl-2 WT” value turned out to be 5.6. In addition, the “Ratio of Bcl-2 G101V/WT” value in test [4] is 9.5.
Turning to `COc1ccc(CN2CCN(C3CC4(C3)CN(c3ccc(C(=O)NS(=O)(=O)c5ccc(NC[C@H]6CC[C@](C)(O)CC6)c([N+](=O)[O-])c5)c(Oc5cnc6[nH]ccc6c5)c3)C4)C(c3ccccc3C(C)C)C2)cc1` (stereo partly shown) [Example 83, 2-((1H-pyrrolo[2,3-b]pyridin-5-yl)oxy)-N-((4-((((1r,4r)-4-hydroxy-4-methylcyclohexyl)methyl)amino)-3-nitrophenyl)sulfonyl)-4-(6-(2-(2-isopropylphenyl)-4-(4-methoxybenzyl)piperazin-1-yl)-2-azaspiro[3.3]heptan-2-yl) benzamide], the IC50 in test [1] is 0.73 nM; in test [2], 0.27 nM; in test [3] it was 0.16 nM; in test [5], 0.25 nM; in test [6] (setting [7]), 0.079 nM; in test [6] (setting [8]), 0.079 nM. In test [3] (comparison in words), the “ratio of Bcl-2 D103Y/Bcl-2 wt, compared with F91b in WO2019210828” value is listed as “significantly lower”. Moreover, in test [3], the “Ratio of Bcl-2 D103Y/Bcl-2 WT” value is reported as 2. The “ratio of IC50 of Bcl-2 G101V/Bcl-2 wt, compared with Example F132b in WO2019210828 and ABT-199 (venetoclax)” value in test [4] (comparison in words) is on record as “much lower”. Further, the “Ratio of Bcl-2 G101V/WT” value in test [4] stood at 3.1.
